The results in this text go back to patent US12428428B2, “Tricyclic tetrahydroisoquinoline derivative, preparation method therefor and application thereof in medicine” (JIANGSU HENGRUI MEDICINE CO., LTD., priority 2020, dated 2025).

The target in the assay is hERG potassium channels (Homo sapiens (Human), UniProt Q12809). Kind of assay: Blocking of hERG potassium currents (automated patch clamp, HEK293-hERG). In kind it is cell-based. The settings on record: HEK293-hERG stable cell strain. The method, then: The blocking of hERG potassium currents by the compounds disclosed herein was tested in a stable cell strain transfected with hERG potassium channels using automated patch clamp.
An HEK293-hERG stable cell strain was subcultured in an MEM/EBSS medium (10% FBS, 400 μg/mL G418, 1% MEM non-essential amino acid solution (100×), 1% sodium pyruvate solution) at a density of 1:4, and an automated patch clamp experiment was conducted between hour 48 and hour 72 after the start of the culture. On the day of the experiment, the cells were digested with 0.25% trypsin, then centrifuged, collected, and resuspended in an extracellular fluid (140 mM NaCl, 4 mM KCl, 1 mM MgCl2, 2 mM CaCl2), 5 mM D-glucose monohydrate, 10 mM Hepes, pH 7.4, 298 mOsm) to form a cell suspension. The cell suspension was placed on the cell bank of the Patchliner instrument, which then applied the cells to a chip (NPC-16) by means of a negative pressure controller. The negative pressure drew individual cells to the wells of the chip. […] Data were recorded and analyzed using the HEAK Patchmaster, HEAK EPC10 patch clamp amplifier (Nanion), Pathliner software and Pathcontrol HT software, and the currents of the compounds at each concentration and the current of the blank control were analyzed.
A general note: The hERG channel carries a current that helps repolarise heart muscle cells.

Sequence of hERG potassium channels (Q12809 whole entry): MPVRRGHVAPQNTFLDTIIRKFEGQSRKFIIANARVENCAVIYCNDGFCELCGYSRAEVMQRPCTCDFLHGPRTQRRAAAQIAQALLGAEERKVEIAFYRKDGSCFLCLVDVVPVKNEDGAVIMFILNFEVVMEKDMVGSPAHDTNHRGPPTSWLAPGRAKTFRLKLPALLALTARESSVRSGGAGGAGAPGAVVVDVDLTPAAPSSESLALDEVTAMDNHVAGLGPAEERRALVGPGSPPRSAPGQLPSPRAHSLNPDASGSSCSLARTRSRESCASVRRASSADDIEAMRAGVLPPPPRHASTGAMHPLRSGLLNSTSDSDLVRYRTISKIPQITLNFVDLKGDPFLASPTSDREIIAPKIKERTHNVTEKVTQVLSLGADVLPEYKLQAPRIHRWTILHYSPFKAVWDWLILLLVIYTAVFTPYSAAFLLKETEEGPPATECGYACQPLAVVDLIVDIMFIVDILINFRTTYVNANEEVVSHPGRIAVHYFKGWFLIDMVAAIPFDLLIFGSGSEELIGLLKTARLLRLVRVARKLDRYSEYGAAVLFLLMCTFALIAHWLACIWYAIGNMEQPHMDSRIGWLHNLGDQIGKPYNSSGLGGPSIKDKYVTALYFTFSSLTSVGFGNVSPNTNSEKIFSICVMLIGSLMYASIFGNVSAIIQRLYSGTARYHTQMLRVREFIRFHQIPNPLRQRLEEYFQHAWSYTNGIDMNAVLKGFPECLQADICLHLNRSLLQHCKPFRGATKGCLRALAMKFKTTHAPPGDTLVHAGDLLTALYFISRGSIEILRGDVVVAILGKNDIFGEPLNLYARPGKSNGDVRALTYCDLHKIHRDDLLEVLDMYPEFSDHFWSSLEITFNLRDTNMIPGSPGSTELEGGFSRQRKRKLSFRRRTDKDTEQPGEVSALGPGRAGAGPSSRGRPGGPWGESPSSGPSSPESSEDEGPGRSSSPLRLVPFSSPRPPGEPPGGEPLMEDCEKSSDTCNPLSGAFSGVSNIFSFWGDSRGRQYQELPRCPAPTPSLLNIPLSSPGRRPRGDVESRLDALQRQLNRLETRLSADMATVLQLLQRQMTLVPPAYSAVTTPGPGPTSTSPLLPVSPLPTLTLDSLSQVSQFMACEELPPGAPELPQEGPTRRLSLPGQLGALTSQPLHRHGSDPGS

As for `C[C@@H]1Cc2cc3c(cc2[C@@H](c2ncc(N[C@H]4CCN(CCCF)C4)cc2F)N1CC(F)(F)CO)OCO3` [Example 11, 2,2-Difluoro-3-((5S,7R)-5-(3-fluoro-5-(((S)-1-(3-fluoropropyl)pyrrolidin-3-yl)amino)pyridin-2-yl)-7-methyl-7,8-dihydro-[1,3]dioxolo[4,5-g]isoquinolin-6(5H)-yl)propan-1-ol], the IC50 – broadly, the concentration needed to halve the response being measured – is greater than 30 µM.

With `[2H]C1([2H])Oc2cc3c(cc2O1)[C@@H](c1ccc(N[C@H]2CCN(CCCF)C2)cn1)N(CC(F)(F)CO)[C@H](C)C3` [Example 12, 2,2-Difluoro-3-((5S,7R)-5-(5-(((S)-1-(3-fluoropropyl)pyrrolidin-3-yl)amino)pyridin-2-yl)-7-methyl-7,8-dihydro-[1,3]dioxolo[4,5-g]isoquinolin-6(5H)-yl-2,2-d2)propan-1-ol], the IC50 is greater than 30 µM.
